Each structure is given as a SMILES string. Like-named read-outs stand apart in the source and are kept apart here. Where a SMILES comes first, the peptide text is derived from it. Bridges are numbered along the chain shown (N, C = ends). [ ]: non-standard residue; d: D form. Tle = CC(C)(C)[C@H](N)C(=O)O; Nle = CCCC[C@H](N)C(=O)O; Orn = NCCC[C@H](N)C(=O)O; Dab = NCC[C@H](N)C(=O)O; Dap = NC[C@H](N)C(=O)O

Holding throughout (assay type): cell-based
Series [1] concerns human red blood cells (hRBC). Put plainly: Hemolysis of human red blood cells. The essentials:
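Fresh human red blood cells are washed in PBS, then shaken with peptide (100 μg/mL) at 37° C. for 1 h, final erythrocyte density about 0.9×10^9 cells/mL. After centrifugation, diluted supernatants are read at 540 nm against buffer (0%) and Triton X-100 (100%) lysis controls.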

Series [2] concerns Pseudomonas aeruginosa ATCC 27853. Put shortly:
(§1)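 MIC in μg/mL; CLSI microdilution; cation-adjusted Mueller-Hinton II with Polysorbate 80 (0.002%); 10^6 CFU/mL; 35° C, 18-20 h.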

In series [3] the test system is Acinetobacter baumannii 872842.
Series [4] deals with Escherichia coli ATCC 25922. Put shortly:
as §1

In series [5] the test system is Acinetobacter baumannii DSM 30008. Put shortly: as §1
The subject of series [6] is Klebsiella pneumoniae 968733.
The test system of series [7] is Klebsiella pneumoniae SSI #3010. Put shortly: as §1
The test system of a further series is Escherichia coli 926415.
The mark [8] stands for this setting: red cells of human, 1 h, 100 μg/mL.
[9] abbreviates: clinical isolate, Mueller-Hinton II broth, P-80 0.002% present.

Turning to `CCCC[C@@H]1NC(=O)[C@@H]2CCCN2C(=O)[C@H]2CCCN2C(=O)[C@H](CO)NC(=O)[C@H](C)NC(=O)[C@H](C(C)(C)C)NC(=O)[C@@H](NC(=O)[C@H](Cc2c[nH]c3ccccc23)NC(C)=O)CSSC[C@@H](C(=O)N[C@@H](CCCN)C(=O)N[C@H](C(=O)N[C@@H](CCN)C(=O)N[C@H]2CCNC(=O)[C@H]([C@@H](C)O)NC(=O)[C@H](CCN)NC(=O)[C@H](CCN)NC(=O)[C@H](CC(C)C)NC(=O)[C@@H](Cc3ccccc3)NC(=O)[C@H](CCN)NC2=O)[C@@H](C)O)NC(=O)[C@H](Cc2ccc(O)cc2)NC(=O)[C@H](CO)NC1=O` [Ex. 13] (Ac-WC[Tle]AS[dP]P[Nle]SYC[Orn]T[Dab][Dab][Dab][dF]L[Dab][Dab]T; disulfide 2-11; lactam 15-C), the “Hemolysis at 100 μg/mL” value in series [1] (setting [8]) was 1%. Also, in series [2] (ATCC 27853), the “Pseudomonas aeruginosa ATCC 27853 MIC” value came to 0.5 µg/mL. Further, the “Acinetobacter baumannii 872842 MIC” value in series [3] (872842) is 0.25 µg/mL. The “Escherichia coli ATCC 25922 MIC” value in series [4] (ATCC 25922) came out at 0.5 µg/mL. Further, the “Acinetobacter baumannii DSM 30008 MIC” value in series [5] (DSM 30008) was 0.125 µg/mL. For the same compound, the “Klebsiella pneumoniae 968733 MIC” value in series [6] (968733) was found to be 1 µg/mL. The “Klebsiella pneumoniae SSI #3010 MIC” value in series [7] (SSI #3010) is 0.5 µg/mL. Moreover, the “Escherichia coli 926415 MIC” value in the series with Escherichia coli 926415 (926415) is 0.5 µg/mL.

Turning to `CCCC[C@@H]1NC(=O)[C@@H]2CCCN2C(=O)[C@H]2CCCN2C(=O)[C@H](CO)NC(=O)[C@H](C)NC(=O)[C@H](C(C)(C)C)NC(=O)[C@@H](NC(=O)[C@H](Cc2c[nH]c3ccccc23)NC(C)=O)CCC(=O)NCC[C@@H](C(=O)N[C@@H](CCN)C(=O)N[C@H](C(=O)N[C@@H](CCN)C(=O)N[C@H]2CCNC(=O)[C@H]([C@@H](C)O)NC(=O)[C@H](CCN)NC(=O)[C@H](CCN)NC(=O)[C@H](CC(C)C)NC(=O)[C@@H](Cc3ccccc3)NC(=O)[C@H](CCN)NC2=O)[C@@H](C)O)NC(=O)[C@H](Cc2ccc(O)cc2)NC(=O)[C@H](CO)NC1=O` [Ex. 14] (Ac-WE[Tle]AS[dP]P[Nle]SY[Dab][Dab]T[Dab][Dab][Dab][dF]L[Dab][Dab]T; lactam 2-11, 15-C), the “Hemolysis at 100 μg/mL” value in series [1] (red cells of human, 1 h, 100) is <1%. Also, the “Pseudomonas aeruginosa ATCC 27853 MIC” value in series [2] (ATCC 27853) turned out to be 1 µg/mL. For the same compound, the “Acinetobacter baumannii 872842 MIC” value in series [3] (872842) was 1 µg/mL. The “Escherichia coli ATCC 25922 MIC” value in series [4] (ATCC 25922) worked out at 0.5 µg/mL. Also, in series [5] (DSM 30008), the “Acinetobacter baumannii DSM 30008 MIC” value was 0.5 µg/mL. Further, the “Klebsiella pneumoniae 968733 MIC” value in series [6] (968733) came out at 8 µg/mL. For the same compound, in series [7] (SSI #3010), the “Klebsiella pneumoniae SSI #3010 MIC” value amounted to 1 µg/mL. Besides, the “Escherichia coli 926415 MIC” value in the series with Escherichia coli 926415 (926415) was 4 µg/mL.

With `CCCC[C@@H]1NC(=O)[C@@H]2CCCN2C(=O)[C@H]2CCCN2C(=O)[C@H](CO)NC(=O)[C@H](C)NC(=O)[C@H](C(C)(C)C)NC(=O)[C@@H](NC(=O)[C@@H](N)Cc2c[nH]c3ccccc23)CSSC[C@@H](C(=O)N[C@@H](CCN)C(=O)N[C@H](C(=O)N[C@@H](CCN)C(=O)N[C@H]2CCNC(=O)[C@H]([C@@H](C)O)NC(=O)[C@H](CCN)NC(=O)[C@H](CCN)NC(=O)[C@H](CC(C)C)NC(=O)[C@@H](CC(C)C)NC(=O)[C@H](CCN)NC2=O)[C@@H](C)O)NC(=O)[C@H](Cc2ccc(O)cc2)NC(=O)[C@H](CO)NC1=O` [Ex. 15] (H-WC[Tle]AS[dP]P[Nle]SYC[Dab]T[Dab][Dab][Dab][dL]L[Dab][Dab]T; disulfide 2-11; lactam 15-C), the “Hemolysis at 100 μg/mL” value in series [1] (setting [8]) came out at 1%. Besides, the “Pseudomonas aeruginosa ATCC 27853 MIC” value in series [2] (ATCC 27853) worked out at 1 µg/mL. Moreover, the “Acinetobacter baumannii 872842 MIC” value in series [3] (872842) came to 0.25 µg/mL. Further, the “Escherichia coli ATCC 25922 MIC” value in series [4] (ATCC 25922) was 0.125 µg/mL. Also, the “Acinetobacter baumannii DSM 30008 MIC” value in series [5] (DSM 30008) was found to be 0.5 µg/mL. In addition, the “Klebsiella pneumoniae 968733 MIC” value in series [6] (968733) turned out to be 2 µg/mL. For the same compound, the “Klebsiella pneumoniae SSI #3010 MIC” value in series [7] (SSI #3010) amounted to 0.25 µg/mL. Further, in the series on Escherichia coli 926415 (926415), the “Escherichia coli 926415 MIC” value is 0.125 µg/mL.

On to `CCCC[C@@H]1NC(=O)[C@@H]2CCCN2C(=O)[C@H]2CCCN2C(=O)[C@H](CO)NC(=O)[C@H](C)NC(=O)[C@H](C(C)(C)C)NC(=O)[C@@H](NC(=O)[C@@H](N)Cc2c[nH]c3ccccc23)CSSC[C@@H](C(=O)N[C@@H](CCN)C(=O)N[C@H](C(=O)N[C@@H](CN)C(=O)N[C@H]2CCNC(=O)[C@H]([C@@H](C)O)NC(=O)[C@H](CCN)NC(=O)[C@H](CCN)NC(=O)[C@H](CC(C)C)NC(=O)[C@@H](Cc3ccccc3)NC(=O)[C@H](CCN)NC2=O)[C@@H](C)O)NC(=O)[C@H](Cc2ccc(O)cc2)NC(=O)[C@H](CO)NC1=O` [Ex. 16] (H-WC[Tle]AS[dP]P[Nle]SYC[Dab]T[Dap][Dab][Dab][dF]L[Dab][Dab]T; disulfide 2-11; lactam 15-C), for which the “Hemolysis at 100 μg/mL” value in series [1] (setting [8]) came out at 3%. Further, in series [2] (ATCC 27853), the “Pseudomonas aeruginosa ATCC 27853 MIC” value worked out at 0.25 µg/mL. The “Acinetobacter baumannii 872842 MIC” value in series [3] (872842) was found to be 0.25 µg/mL. The “Escherichia coli ATCC 25922 MIC” value in series [4] (ATCC 25922) was determined as 0.5 µg/mL. For the same compound, the “Acinetobacter baumannii DSM 30008 MIC” value in series [5] (DSM 30008) was found to be 0.25 µg/mL. Further, the “Klebsiella pneumoniae 968733 MIC” value in series [6] (968733) amounted to 0.375 µg/mL. In addition, the “Klebsiella pneumoniae SSI #3010 MIC” value in series [7] (SSI #3010) is 0.25 µg/mL. Also, the “Escherichia coli 926415 MIC” value in the series with Escherichia coli 926415 (926415) stood at 0.125 µg/mL.

`CCCC[C@@H]1NC(=O)[C@@H]2CCCN2C(=O)[C@@H](C)NC(=O)[C@H](CO)NC(=O)[C@H](C)NC(=O)[C@H](C(C)(C)C)NC(=O)[C@@H](NC(=O)[C@H](Cc2c[nH]c3ccccc23)NC(C)=O)CSSC[C@@H](C(=O)N[C@@H](CCN)C(=O)N[C@H](C(=O)N[C@@H](CCN)C(=O)N[C@H]2CCNC(=O)[C@H]([C@@H](C)O)NC(=O)[C@H](CCN)NC(=O)[C@H](CCN)NC(=O)[C@H](CC(C)C)NC(=O)[C@@H](Cc3ccccc3)NC(=O)[C@H](CCN)NC2=O)[C@@H](C)O)NC(=O)[C@H](Cc2ccc(O)cc2)NC(=O)[C@H](CO)NC1=O` [Ex. 17] (Ac-WC[Tle]AS[dA]P[Nle]SYC[Dab]T[Dab][Dab][Dab][dF]L[Dab][Dab]T; disulfide 2-11; lactam 15-C): in series [1] (setting [8]), the “Hemolysis at 100 μg/mL” value was 3%. The “Pseudomonas aeruginosa ATCC 27853 MIC” value in series [2] (ATCC 27853) was 0.5 µg/mL. In series [3] (872842), the “Acinetobacter baumannii 872842 MIC” value came out at 0.25 µg/mL. In addition, the “Escherichia coli ATCC 25922 MIC” value in series [4] (ATCC 25922) was found to be 0.25 µg/mL. In addition, the “Acinetobacter baumannii DSM 30008 MIC” value in series [5] (DSM 30008) is 0.5 µg/mL. Also, the “Klebsiella pneumoniae 968733 MIC” value in series [6] (968733) came to 0.5 µg/mL. In addition, the “Klebsiella pneumoniae SSI #3010 MIC” value in series [7] (SSI #3010) came out at 0.5 µg/mL. Also, in the series with Escherichia coli 926415 (926415), the “Escherichia coli 926415 MIC” value came out at 1.5 µg/mL.

`CCCC[C@@H]1NC(=O)[C@@H]2CCCN2C(=O)[C@H]2CCCN2C(=O)[C@H]([C@@H](C)O)NC(=O)[C@H](CO)NC(=O)[C@H](C(C)(C)C)NC(=O)[C@@H](NC(=O)[C@H](Cc2c[nH]c3ccccc23)NC(C)=O)CSSC[C@@H](C(=O)N[C@@H](CCN)C(=O)N[C@H](C(=O)N[C@@H](CCN)C(=O)N[C@H]2CCNC(=O)[C@H]([C@@H](C)O)NC(=O)[C@H](CCN)NC(=O)[C@H](CCN)NC(=O)[C@H](CC(C)C)NC(=O)[C@@H](Cc3ccccc3)NC(=O)[C@H](CCN)NC2=O)[C@@H](C)O)NC(=O)[C@H](Cc2ccc(O)cc2)NC(=O)[C@H](C)NC1=O` [Ex. 18] (Ac-WC[Tle]ST[dP]P[Nle]AYC[Dab]T[Dab][Dab][Dab][dF]L[Dab][Dab]T; disulfide 2-11; lactam 15-C): in series [1] (100 μg/mL, 20% hRBC, 1 h at 37° C.), the “Hemolysis at 100 μg/mL” value was found to be 6%. Moreover, the “Pseudomonas aeruginosa ATCC 27853 MIC” value in series [2] (Mueller-Hinton II broth) was found to be 0.5 µg/mL. Also, the “Acinetobacter baumannii 872842 MIC” value in series [3] (setting [9]) stood at 1 µg/mL. In addition, the “Escherichia coli ATCC 25922 MIC” value in series [4] (Mueller-Hinton II broth) was determined as 0.125 µg/mL. Besides, the “Acinetobacter baumannii DSM 30008 MIC” value in series [5] (Mueller-Hinton II broth) was determined as 0.25 µg/mL. The “Klebsiella pneumoniae 968733 MIC” value in series [6] (setting [9]) came to 0.5 µg/mL. Further, the “Klebsiella pneumoniae SSI #3010 MIC” value in series [7] (Mueller-Hinton II broth) is 2 µg/mL. For the same compound, the “Escherichia coli 926415 MIC” value in the series on Escherichia coli 926415 (setting [9]) stood at 0.5 µg/mL.

The values are drawn from patent US10829520B2, “Beta-hairpin peptidomimetics” (POLYPHOR AG, priority 2015, dated 2020).
